Laboratory results as given in publication PMC7312485, “Lessons on the Sigma-1 Receptor in TNBS-Induced Rat Colitis: Modulation of the UCHL-1, IL-6 Pathway” (International Journal of Molecular Sciences, 2020).

Legend:
HMGB1 = test: Western blot of HMGB1 expression in colon, TNBS colitis; format: in vivo, rat; details: TNBS group 1.75 ± 0.165
Protocol: (§1) Male Wistar–Harlan rats (225–250 g) were purchased from Toxicoop Ltd. (Dunakeszi, Hungary) and housed in a room with acclimatized temperature under 12h day/night cycles with food and water ad libitum. Animals were randomly divided into 3 groups: absolute control (no treatment, n = 12), 50% EtOH (ethanol enema, n = 12), and TNBS (10 mg dissolved in 50% Ethanol, n = 85). Colitis was assessed following Morris’ method. Animals fasted overnight and a TNBS enema was administered intracolonically (i.c.) with an 8cm long polyethylene canulla through the anus under mild anesthesia (Thiopental, i.p. 40 mg/kg). […]
(§2) In total, 30 mg from each powdered sample was measured and suspended in RIPA buffer (Merck Millipore, Burlington, MA, USA) supplemented with phenylmethylsulfonyl fluoride (PMSF) (Sigma-Aldrich, Budapest, Hungary); 1/10 of the final volume. […] The supernatant was collected and protein concentration was determined by using a Bradford assay and bovine serum albumin as a standard. […] Results were analyzed using Quantity One Software version 4.5 (Bio-Rad Laboratories, Hercules, CA, USA). […]

NF-κB p65 subunit = test: Western blot of NF-κB p65 expression in colon, TNBS colitis; format: in vivo, rat; details: TNBS group 0.83 ± 0.09
Protocol: as §1, §2

[1] = test system: heme oxygenase enzyme (HO); test: Heme oxygenase activity (bilirubin formation) in colon, TNBS colitis; format: in vivo, rat; details: TNBS group 0.26 ± 0.03
Protocol: (§3) Animals were randomly divided into 3 groups: absolute control (no treatment, n = 12), 50% EtOH (ethanol enema, n = 12), and TNBS (10 mg dissolved in 50% Ethanol, n = 85). Colitis was assessed following Morris’ method. Animals fasted overnight and a TNBS enema was administered intracolonically (i.c.) with an 8cm long polyethylene canulla through the anus under mild anesthesia (Thiopental, i.p. 40 mg/kg). […] Animals were fasted for 5 h each day before i.c. treatments.
(§4) After 72 h of TNBS administration, euthanized animals (Thiopental, i.p. 100 mg/kg) were sacrificed and the last 8 cm portion of the colon was removed, gently opened, rinsed in physiological saline and photographed for further macroscopic analysis. Then, the colon segments were frozen in liquid nitrogen. Frozen colon tissues were powdered in liquid nitrogen by using a porcelain mortar and pestle and kept at −80 °C until used for biochemical measurements.

sigma-1 receptor (σ1R) [2] = test: Western blot of sigma-1 receptor expression in colon, TNBS colitis; format: in vivo, rat
Protocol: as §1, §2

[3] = test system: myeloperoxidase enzyme (MPO); test: Myeloperoxidase activity in colon, TNBS colitis; format: in vivo, rat
Protocol: as §3, §4
To further break the membranes, three freeze–thaw cycles were applied in liquid nitrogen and a 37 °C water bath. Homogenates then were centrifuged at 10,000× g for 15 min at 4 °C. […] The reaction was started with the addition of 10 µL 0.03% hydrogen peroxide (H2O2). After shaking for 90 s, MPO activity was assayed spectrophotometrically at 490 nm (Benchmark Microplate Reader, Bio-Rad Laboratories, Hercules, CA, USA). MPO activity was expressed as uU/mg protein.

TNBS-induced rat colitis = test: Severity of inflammation (macroscopic lesion area by planimetry) in TNBS-induced colitis; format: in vivo; details: TNBS group 61.68 ± […]
Protocol: as §3, §4
The extent of macroscopically apparent inflammation, ulceration and tissue disruption was determined in a randomized manner from the colored images, using proprietary computerized planimetry software which was developed in our laboratory (Stat_2_1_1, Szeged, Hungary) and is based on planimetrics. The area of macroscopically visible mucosal damage was calculated and expressed as a % of the total studied 8 cm colonic segment.

IL-6 = IL-6 levels in colon by ELISA, TNBS colitis; format: in vivo, rat
Protocol: as §1
(§5) To determine the tissue levels of IL-6 and eNOS in the colon, we used double-antibody sandwich ELISA kits specific for rat IL-6 or eNOS. eNOS kit was purchased from MyBioSource (MBS721860; San Diego, CA, USA) and IL-6 was purchased from GenAsia Biotech Co., Ltd. (Shanghai, China). […] Parameters were measured according to the manufacturer’s instructions and protocols, and optical densities (OD) were assayed at λ = 450 nm. […]

iNOS = test: Western blot of iNOS expression in colon, TNBS colitis; format: in vivo, rat
Protocol: as §1, §2

UCHL-1 = test: Western blot of UCHL-1 expression in colon, TNBS colitis; format: in vivo, rat; details: FLV 1 mg/kg i.c.; TNBS group 1.23 ± 0.16
Protocol: as §1, §2

sigma-1 receptor (σ1R) [4] = target: T1, sigma-1 receptor (σ1R) (Rattus norvegicus, UniProt Q9R0C9); test: [3H](+)-pentazocine saturation binding in rat colon membranes; details: TNBS-induced colitis rat colon membranes after 1 mg/kg FLV administration (TNBS + FLV)
T1 construct: from tissue; host or cells: rat colon membrane homogenate (male Wistar–Harlan rats; control, TNBS, 50% EtOH, TNBS + FLV treated)
T1 sequence (Q9R0C9 whole entry): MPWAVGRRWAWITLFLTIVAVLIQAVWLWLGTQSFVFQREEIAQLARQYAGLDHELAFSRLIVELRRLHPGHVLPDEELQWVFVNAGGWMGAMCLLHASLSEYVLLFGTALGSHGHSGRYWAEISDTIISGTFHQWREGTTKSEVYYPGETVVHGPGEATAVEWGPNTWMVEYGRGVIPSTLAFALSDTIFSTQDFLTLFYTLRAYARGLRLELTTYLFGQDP
Protocol: The homogenate was centrifuged at 17,000× g for 10 min (4 °C).
The incubation was terminated by diluting the samples with an ice-cold wash buffer (50 mM of Tris–HCl, pH 8.0), followed by repeated washing and rapid filtration through Whatman GF/B glass fiber filters (Whatman Ltd., Maidstone, UK) presoaked with 0.1% polyethyleneimine. Filtration was performed with a 24-well Brandel Cell Harvester (Gaithersburg, MD, USA). Filters were air-dried and immersed into Ultima Gold MV scintillation cocktail, and then radioactivity was measured with a TRI-CARB 2100TR liquid scintillation analyzer (Packard, Perkin Elmer, Waltham, MA, USA).
All data are presented as mean ± SEM. […] In competition binding studies, the inhibitory constants (Ki) were calculated from the inflection points of the displacement curves using nonlinear least-square curve fitting and the Cheng–Prusoff equation, Ki = EC50/(1 + [ligand]/Kd).

eNOS = eNOS levels in colon by ELISA, TNBS colitis; format: in vivo, rat; details: FLV 1 mg/kg i.c.; TNBS group 2.62 ± 0.126
Protocol: as §1, §5

With CN1CCN(CCc2ccc(Cl)c(Cl)c2)CC1 [BD1063] the “HMGB1 expression (normalized to β-actin)” value (HMGB1; BD1063 0.1 mg/kg i.c.) was 1.305 ± 0.044 relative expressions, the “NF-κB p65 subunit expression (normalized to β-actin)” value (NF-κB p65 subunit; BD1063 0.1 mg/kg i.c.) was 0.48 ± 0.03 relative expression and the HO enzyme activity ([1]; BD1063 0.1 mg/kg i.c.) was 0.40 ± 0.04 nmol bilirubin/h/mg protein. For the same compound, the “σ1R expression vs. TNBS group” value (sigma-1 receptor (σ1R) [2]; BD1063 0.1 mg/kg i.c.) was “didn’t affect the expression of the receptor”, the “MPO activity vs. TNBS group” value ([3]; BD1063 0.1 mg/kg i.c.) was “didn’t affect the activity of the MPO” and the “Severity of inflammation (area of mucosal damage, % of 8 cm colonic segment)” value (TNBS-induced rat colitis; 0.1 mg/kg BD1063 i.c. once a day) was 76.77 ± 2.52%. The “IL-6 levels vs. TNBS group” value (IL-6; BD1063 0.1 mg/kg i.c.) was “didn’t affect IL-6 levels” and the “iNOS expression vs. TNBS group” value (iNOS; BD1063 0.1 mg/kg i.c.) was “did not alter the expression of iNOS”.
In the case of O=C(O)c1cc(/N=N/c2ccc(S(=O)(=O)Nc3ccccn3)cc2)ccc1O [SASP, Sulfasalazine], the “Severity of inflammation (area of mucosal damage, % of 8 cm colonic segment)” value (TNBS-induced rat colitis; positive control, 2 × 25 mg/kg per os) is reported as 35.78 ± 2.83%.
With COCCCC/C(=N\OCCN)c1ccc(C(F)(F)F)cc1 [FLV, Fluvoxamine] the “UCHL-1 expression (normalized to β-actin)” value (UCHL-1) was 2.104 ± 0.13 relative expression, the “Bmax ± S.E.M., saturation binding (σ1R density)” value (sigma-1 receptor (σ1R) [4]) was 134 ± 14 fmol/mg and the “HMGB1 expression (normalized to β-actin)” value (HMGB1; FLV 1 mg/kg i.c.) was 1.264 ± 0.07 relative expressions. The “NF-κB p65 subunit expression (normalized to β-actin)” value (NF-κB p65 subunit; FLV 1 mg/kg i.c.) was 0.52 ± 0.04 relative expression, the HO enzyme activity ([1]; FLV 1 mg/kg i.c.) was 0.40 ± 0.03 nmol bilirubin/h/mg protein and the “σ1R expression (normalized to β-actin)” value (sigma-1 receptor (σ1R) [2]; FLV 1 mg/kg i.c., TNBS group 0.326 ± 0.05) was 0.72 ± 0.083 relative expression. The MPO activity ([3]; FLV 1 mg/kg i.c., TNBS group 42653.4 ± 3220.24) was 25021.2 ± 2554.66 uU/mg protein, the “Severity of inflammation (area of mucosal damage, % of 8 cm colonic segment)” value (TNBS-induced rat colitis; 0.1 mg/kg FLV i.c. once a day, 72 h after TNBS) was 41.23 ± 5.76% and the “Severity of inflammation (area of mucosal damage, % of 8 cm colonic segment)” value (TNBS-induced rat colitis; 1 mg/kg i.c. once a day, 72 h after TNBS) was 28.29 ± 2.53%. For the same compound, the “IL-6 levels in colon” value (IL-6; FLV 1 mg/kg i.c., TNBS group 60.48 ± 4.55) was 30.53 ± 4.10 ng/L, the “iNOS expression (normalized to β-actin)” value (iNOS; FLV 1 mg/kg i.c., TNBS group 0.53 ± 0.02) was 0.255 ± 0.11 relative expression and the eNOS levels (eNOS) was 4.21 ± 0.66 relative expression.
